According to paper PMC7534383, “Structure-activity relationship of 7-aryl-2-anilino-pyrrolopyrimidines as Mer and Axl tyrosine kinase inhibitors” (Journal of Enzyme Inhibition and Medicinal Chemistry, 2020):
Entries after “also recorded” stand apart in the source; their conditions may differ. Where two headings read alike, the source gives them in different places.

What was measured:
Mer = conditions: Figure 1, known TAM kinase inhibitors; cited from earlier work
TYRO3 [1] = target: T1, TYRO3 (Homo sapiens, UniProt Q06418); conditions: Figure 1, known TAM kinase inhibitors; cited from earlier work
T1 sequence (Q06418 41-890): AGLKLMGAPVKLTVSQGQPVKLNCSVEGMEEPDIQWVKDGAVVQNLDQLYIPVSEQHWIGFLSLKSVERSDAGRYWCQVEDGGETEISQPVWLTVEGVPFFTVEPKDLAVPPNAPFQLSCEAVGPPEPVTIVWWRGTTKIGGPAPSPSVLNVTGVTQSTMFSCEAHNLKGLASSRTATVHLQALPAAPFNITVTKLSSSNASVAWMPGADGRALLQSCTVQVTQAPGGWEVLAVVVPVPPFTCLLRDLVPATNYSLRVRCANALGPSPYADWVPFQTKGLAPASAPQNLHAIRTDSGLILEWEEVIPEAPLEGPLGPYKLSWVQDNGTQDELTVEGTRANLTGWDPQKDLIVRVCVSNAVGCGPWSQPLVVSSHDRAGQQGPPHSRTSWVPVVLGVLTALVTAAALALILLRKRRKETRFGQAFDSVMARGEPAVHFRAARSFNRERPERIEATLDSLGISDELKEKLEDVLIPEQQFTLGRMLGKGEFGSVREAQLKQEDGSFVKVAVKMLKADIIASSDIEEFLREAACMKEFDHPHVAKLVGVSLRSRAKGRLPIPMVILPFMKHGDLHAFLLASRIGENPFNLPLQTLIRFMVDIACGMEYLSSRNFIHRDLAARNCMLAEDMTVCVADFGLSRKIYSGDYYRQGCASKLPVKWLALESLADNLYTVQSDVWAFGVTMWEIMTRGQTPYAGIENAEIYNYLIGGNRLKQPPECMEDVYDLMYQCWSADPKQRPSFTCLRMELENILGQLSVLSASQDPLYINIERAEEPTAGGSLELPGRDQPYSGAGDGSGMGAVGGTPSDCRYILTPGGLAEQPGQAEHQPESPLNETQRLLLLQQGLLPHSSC

TYRO3 [2] = target: T1, TYRO3; test: Kinase assay at Km ATP (Eurofins Discovery), Tyro3; format: biochemical
Experimental: (§1) All kinase assays were carried out at Km ATP by Eurofins Discovery's Kinase Screening and Profiling services (France).

[3] = system: Mer phosphorylation in Mer-overexpressed human gastric cancer cell line MKN28; test: Western blot of Mer phosphorylation in MKN28 cells; format: cell-based; conditions: 0.5 and 0.1 μM, 1.5 h, UNC2025 positive control
Experimental: MKN28 cells were obtained from the Korea Institute of Science and Technology (KIST). Cells were cultured in Roswell Park Memorial Institute (RPMI) 1640 medium containing 10% fetal bovine serum and 1% penicillin/streptomycin at 37 °C with 5% CO2 under a humidified atmosphere.
MKN 28 cells (500,000 cells/2 ml) were seeded in each well of 6-well plates and incubated for 24 h. Then, the cells were treated with 20 µL of DMSO stock solution of the corresponding compounds and incubated for a further 1.5 h. After that, the cells were washed with cold Dulbecco's Phosphate-Buffered Saline (DPBS) twice and lysed with RIPA buffer supplemented with protease inhibitor and phosphatase inhibitor cocktails on ice. Equal amounts of protein samples were boiled with 5× SDS-PAGE loading buffer and separated by 10% SDS-PAGE gels, then transferred onto polyvinylidene difluoride (PVDF) membranes. The membranes were blocked with 5% BSA in 1× TBST (1× TBS with 0.1% Tween-20) for 1 h and incubated at 4 °C overnight with a 1:1000 dilution of the following primary antibodies in blocking buffer: pMer (Tyr749 + 753 + 754, ab14921), Mer (CST, # 4319), and ß-actin (SC, # SC-47778). […]
Figure 3. […] Bar graph represents the relative intensities of the total and phosphorylated Mer as determined by band densitometry using image analysis software.

AXL = target: T2, AXL (Homo sapiens, UniProt P30530); test: Kinase assay at Km ATP (Eurofins Discovery), Axl; format: biochemical; conditions: Km ATP
T2 sequence (P30530 26-894): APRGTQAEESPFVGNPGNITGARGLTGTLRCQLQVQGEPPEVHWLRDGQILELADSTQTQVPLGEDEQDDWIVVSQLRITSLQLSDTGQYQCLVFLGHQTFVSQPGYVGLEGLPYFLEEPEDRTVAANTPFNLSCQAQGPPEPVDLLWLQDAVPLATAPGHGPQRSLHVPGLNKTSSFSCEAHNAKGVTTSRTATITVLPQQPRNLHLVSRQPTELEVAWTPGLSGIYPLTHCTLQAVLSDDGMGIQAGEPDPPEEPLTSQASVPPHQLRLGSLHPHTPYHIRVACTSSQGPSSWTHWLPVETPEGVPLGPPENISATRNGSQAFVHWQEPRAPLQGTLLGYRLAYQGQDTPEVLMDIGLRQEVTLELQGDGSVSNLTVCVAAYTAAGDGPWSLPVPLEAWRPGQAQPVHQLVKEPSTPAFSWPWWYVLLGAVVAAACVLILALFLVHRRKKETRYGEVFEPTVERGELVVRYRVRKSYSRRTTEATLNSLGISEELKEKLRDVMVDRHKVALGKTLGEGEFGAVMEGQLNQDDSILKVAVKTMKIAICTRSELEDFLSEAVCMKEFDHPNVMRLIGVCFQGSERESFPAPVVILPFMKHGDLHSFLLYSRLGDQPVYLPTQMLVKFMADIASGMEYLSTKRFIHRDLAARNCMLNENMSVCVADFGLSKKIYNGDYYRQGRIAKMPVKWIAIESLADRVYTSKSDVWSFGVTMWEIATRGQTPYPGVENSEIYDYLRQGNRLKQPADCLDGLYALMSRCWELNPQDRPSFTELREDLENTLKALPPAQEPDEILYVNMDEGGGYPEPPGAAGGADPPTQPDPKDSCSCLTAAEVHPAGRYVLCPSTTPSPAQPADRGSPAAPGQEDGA
Experimental: as §1

MERTK = target: T3, MERTK (Homo sapiens, UniProt Q12866); test: Kinase assay at Km ATP (Eurofins Discovery), Mer; format: biochemical; conditions: Km ATP, read-out: IC50 (nM) MER
T3 sequence (Q12866 21-999): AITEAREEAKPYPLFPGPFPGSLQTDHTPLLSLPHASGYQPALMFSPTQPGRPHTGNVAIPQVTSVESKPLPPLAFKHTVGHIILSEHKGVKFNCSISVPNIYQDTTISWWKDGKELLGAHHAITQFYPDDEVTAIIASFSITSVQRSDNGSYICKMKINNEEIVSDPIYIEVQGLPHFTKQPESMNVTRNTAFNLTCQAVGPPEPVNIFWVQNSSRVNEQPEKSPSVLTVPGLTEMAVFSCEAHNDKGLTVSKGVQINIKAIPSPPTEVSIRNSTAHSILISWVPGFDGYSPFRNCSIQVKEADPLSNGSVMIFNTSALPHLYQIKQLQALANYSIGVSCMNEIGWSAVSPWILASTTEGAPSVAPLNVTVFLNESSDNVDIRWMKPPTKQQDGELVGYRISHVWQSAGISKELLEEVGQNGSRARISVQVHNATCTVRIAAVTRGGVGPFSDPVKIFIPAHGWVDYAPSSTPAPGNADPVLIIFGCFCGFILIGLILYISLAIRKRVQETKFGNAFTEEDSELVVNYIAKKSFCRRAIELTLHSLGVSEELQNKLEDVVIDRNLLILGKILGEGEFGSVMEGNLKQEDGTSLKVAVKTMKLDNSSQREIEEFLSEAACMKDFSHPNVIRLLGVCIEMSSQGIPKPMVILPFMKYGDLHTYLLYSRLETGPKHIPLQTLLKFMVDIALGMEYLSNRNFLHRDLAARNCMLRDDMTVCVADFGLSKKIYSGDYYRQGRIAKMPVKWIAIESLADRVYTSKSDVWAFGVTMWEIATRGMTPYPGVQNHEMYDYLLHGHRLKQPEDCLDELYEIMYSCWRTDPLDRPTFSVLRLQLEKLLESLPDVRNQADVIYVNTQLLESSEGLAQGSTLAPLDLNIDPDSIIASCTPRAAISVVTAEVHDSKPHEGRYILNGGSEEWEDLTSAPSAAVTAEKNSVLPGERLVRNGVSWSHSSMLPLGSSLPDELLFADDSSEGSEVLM
Experimental: as §1

CCOc1ccn(-c2ccc(F)cc2)c(=O)c1C(=O)Nc1ccc(Oc2ccnc(N)c2Cl)c(F)c1 [BMS-777607]
IC50 (Mer): 14 nM | IC50 (TYRO3 [1]): 4 nM

COc1ccc(-n2ccc3cnc(Nc4cc(OC)cc(N5CCC(N6CCCC6)CC5)c4)nc32)cc1 [Compound 27, N-(3-Methoxy-5–(4-(pyrrolidin-1-yl)piperidin-1-yl)phenyl)-7–(4-methoxyphenyl)-7H-pyrrolo[2,3-d]pyrimidin-2-amine]
inhibition at 1 µM (TYRO3 [2]): 40% | Inhibitory effect on Mer phosphorylation [3]: better effect on blocking phosphorylation than UNC2025; also recorded: considerable inhibition for Mer phosphorylation in cells | IC50 (AXL; Table 2): 16 nM | IC50 (MERTK; Table 2): 2 nM

COc1cc(Nc2ncc3ccn([C@H]4CC[C@H](O)CC4)c3n2)cc(N2CCC(N3CCCC3)CC2)c1 [Compound 36, (1r,4r)-4–(2-((3-Methoxy-5–(4-(pyrrolidin-1-yl)piperidin-1-yl)phenyl)amino)-7H-pyrrolo[2,3-d]pyrimidin-7-yl)cyclohexanol]
%Inhibition at 1 µM TYRO3 (TYRO3 [2]; Table 3, 1 µM, Km ATP): 55% | IC50 (AXL; Table 3): 2020 nM | IC50 (MERTK; Table 3): 484 nM
